Data from the supplement of paper PMC10307832.

Legend:
Experiment in all cases: relative viability (nuclei count vs DMSO), 5 days (fraction); higher = more cells survive
[1] = compound: CC1=CC=C(C=C1)C(=O)CN2C3=C(CCCC3)SC2=N [Pifithrin_alpha] + CC1(C)CCC(c2ccc(Cl)cc2)=C(CN2CCN(c3ccc(C(=O)NS(=O)(=O)c4ccc(N[C@H](CCN5CCOCC5)CSc5ccccc5)c(S(=O)(=O)C(F)(F)F)c4)cc3)CC2)C1 [Navitoclax] (partner 0.5 µM)
Procedure, shortened: (§1)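 After 5 days of treatment, lung cancer cells in 1536-well plates were fixed and stained in a single step (final 0.05% Triton X-100, 1% formaldehyde, 1 ug/ml Hoechst) and their nuclei counted on 4× images. Treatment had been applied by pin tool the day after seeding as one drug alone or as a fixed anchor-drug dose with five library-drug doses (not always all listed) in √10 steps. Relative viability is the nuclei count of treated wells divided by that of vehicle wells, and values are medians of duplicate plates.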

Axitinib + Palbociclib = compound: CNC(=O)c1ccccc1Sc1ccc2c(/C=C/c3ccccn3)n[nH]c2c1 [Axitinib] + CC(=O)c1c(C)c2cnc(Nc3ccc(N4CCNCC4)cn3)nc2n(C2CCCC2)c1=O [Palbociclib] (partner 0.5 µM)
Procedure, shortened: as §1

Axitinib + Navitoclax = compound: CNC(=O)c1ccccc1Sc1ccc2c(/C=C/c3ccccn3)n[nH]c2c1 [Axitinib] + CC1(C)CCC(c2ccc(Cl)cc2)=C(CN2CCN(c3ccc(C(=O)NS(=O)(=O)c4ccc(N[C@H](CCN5CCOCC5)CSc5ccccc5)c(S(=O)(=O)C(F)(F)F)c4)cc3)CC2)C1 [Navitoclax] (partner 0.5 µM)
Procedure, shortened: as §1

Bemcentinib + Pemetrexed = compound: Nc1nc(Nc2ccc3c(c2)CC[C@@H](N2CCCC2)CC3)nn1-c1cc2c(nn1)-c1ccccc1CCC2 [Bemcentinib] + Nc1nc2[nH]cc(CCc3ccc(C(=O)N[C@@H](CCC(=O)O)C(=O)O)cc3)c2c(=O)[nH]1 [Pemetrexed] (partner 0.2 µM)
Procedure, shortened: as §1

Cell Line | relative viability ([1]; first compound 1 µM) | relative viability ([1]; first compound 3.162 µM) | relative viability ([1]; first compound 10 µM) | relative viability ([1]; first compound 31.62 µM) | relative viability ([1]; first compound 100 µM) | relative viability (Axitinib + Palbociclib; first compound 0.005 µM) | relative viability (Axitinib + Palbociclib; first compound 0.01581 µM) | relative viability (Axitinib + Palbociclib; first compound 0.05 µM) | relative viability (Axitinib + Palbociclib; first compound 0.1581 µM) | relative viability (Axitinib + Palbociclib; first compound 0.5 µM) | relative viability (Axitinib + Navitoclax; first compound 0.005 µM) | relative viability (Axitinib + Navitoclax; first compound 0.01581 µM) | relative viability (Axitinib + Navitoclax; first compound 0.05 µM) | relative viability (Axitinib + Navitoclax; first compound 0.1581 µM) | relative viability (Axitinib + Navitoclax; first compound 0.5 µM) | relative viability (Bemcentinib + Pemetrexed; first compound 0.04 µM) | relative viability (Bemcentinib + Pemetrexed; first compound 0.1265 µM) | relative viability (Bemcentinib + Pemetrexed; first compound 0.4 µM) | relative viability (Bemcentinib + Pemetrexed; first compound 1.265 µM) | relative viability (Bemcentinib + Pemetrexed; first compound 4 µM)
NCI-H1734 | 0.892 | 0.95 | 0.796 | 0.745 | 0.734 | 0.35 | 0.373 | 0.345 | 0.334 | 0.425 | 0.903 | 0.839 | 0.843 | 0.861 | 0.971 | 0.419 | 0.459 | 0.398 | 0.402 | 0.448
NCI-H1993 | – | 0.79 | 0.594 | 0.718 | 0.639 | 0.604 | 0.68 | 0.678 | 0.583 | 0.677 | 1.13 | 0.937 | 1.07 | 1.03 | 1.1 | 0.566 | 0.59 | 0.623 | 0.584 | 0.62
NCI-H2085 | 1.06 | 1.22 | 1.08 | 0.876 | 1.04 | 0.495 | 0.482 | 0.454 | 0.487 | 0.452 | 1.09 | 1.28 | 1.26 | 1.03 | 1.18 | 0.857 | 0.945 | 0.861 | 0.876 | 0.714
COR-L23 | 1.09 | 1.09 | 0.974 | – | 1.19 | 0.322 | 0.297 | 0.323 | 0.303 | 0.331 | 0.948 | 0.983 | 1.15 | 1.07 | 1.15 | 0.195 | 0.204 | 0.204 | 0.19 | 0.202
NCI-H1793 | 0.395 | 0.282 | 0.382 | 0.339 | 0.339 | 0.285 | 0.259 | 0.369 | 0.285 | 0.346 | 0.438 | 0.386 | 0.424 | 0.514 | 0.504 | 0.853 | 1.05 | 0.933 | 0.853 | 0.813
EPLC-272H | – | 0.978 | 1.02 | 0.894 | 1.25 | 0.294 | 0.369 | 0.336 | 0.354 | 0.309 | 1.19 | 1.11 | 1.09 | 1.18 | 1.09 | 0.313 | 0.337 | 0.371 | 0.319 | 0.291
NCI-H2009 | 1.24 | 1.1 | 1.05 | 0.784 | 0.957 | 0.257 | 0.295 | 0.203 | 0.233 | 0.255 | 1.19 | 1.19 | 1.17 | 1.18 | 1.23 | 1.03 | 1.07 | 1.12 | 1.07 | 1.01
ChaGo-K-1 | 0.873 | 0.999 | 0.888 | 0.734 | 0.891 | 0.88 | 0.947 | 0.972 | 0.863 | 1 | 1.07 | 0.779 | 1.13 | 0.921 | 0.895 | 0.265 | 0.262 | 0.274 | 0.244 | 0.251
